Results published in patent US20250049968A1, “THERAPEUTIC AND IMAGING AGENTS FOR TARGETING MYOCARDIAL TISSUE” (The Board of Regents of the University of Oklahoma, priority 2023, published 2025).

How the values were obtained:
[1] = clinical PK profile; cited from earlier work
MI hearts = test: Whole-body PET imaging of ^18F-OM for detection of MI in mice; format: in vivo; settings: for cardiac uptake in MI hearts compared to sham/normal hearts, PET: occluded left anterior descending coronary artery model
Procedure: Approximately 80 uCi of ^18F-OM was injected and images were acquired after 4 h. […] In another non-limiting embodiment of the present disclosure, the OM or OM-liposomes can be labeled with ^18F radionuclide for PET imaging of myocardial infarction as an infarct-avid radiotracer. Unlike radiotracers for perfusion imaging, infarct-avid agents are not taken up by normal myocardium and only accumulate at the site of acute infarct. Therefore, infarct radiotracers produce images with less background and improved signal-to-noise ratio. Currently, no infarct-avid radiotracer is available for clinical PET imaging of infarct tissue. […] After successful labeling, we investigated ^18F-OM for detection of MI in a mouse model of occluded anterior descending branch of the left coronary artery. After imaging, the mice were euthanized to collect various organs for counting of tissue-associated radioactivity.

[2] = approx. 80 uCi, images after 4 h, FIG. 6

| accumulation in sham hearts, PET (MI hearts; FIG. 7) | background signal from accumulation in liver and lung tissue (MI hearts; PET, mice) | accumulation in hearts of MI mice, whole-body PET (MI hearts; [2]) | accumulation in normal hearts of control mice, whole-body PET (MI hearts; [2]) | cardiac uptake in MI hearts compared to sham/normal hearts, PET (MI hearts; FIG. 7) | cardiac uptake in MI hearts compared to sham/normal hearts, PET (MI hearts; FIG. 7, listed as [18F]-OMA) | Compound | mean apparent terminal elimination half-life (t1/2) [1] [h] | detection of surgical MI, target/non-target ratio (MI hearts; PET, mice, FIG. 6) |
| --- | --- | --- | --- | --- | --- | --- | --- | --- |
|  |  |  |  |  |  | COC(=O)N1CCN(Cc2cccc(NC(=O)Nc3ccc(C)nc3)c2F)CC1 [OM, omecamtiv mecarbil] | 18.5 |  |
| accumulated significant | lack of background signal | high accumulation | no visible accumulation | significantly more pronounced | distinctly high uptake | COC(=O)N1CCN(Cc2cccc(NC(=O)Nc3ccc(C)nc3)c2OCCF)CC1 [^18F-OM, Methyl 4-(2-(2-fluoroethoxy)-3-(3-(6-methylpyridin-3-yl)ureido)benzyl)piperazine-1-carboxylate] |  | high target/non-target ratio |
